{"source": "patent US12220404B2", "about": "“Treatment and management of augmentation in restless legs syndrome” (East Carolina University, priority 2015, dated 2025)", "key": {"[1]": {"test_system": "isolated spinal cord (monosynaptic stretch reflex)", "assay": "Spinal reflex amplitudes (SRAs) in the isolated spinal cord", "parameters": "species or system mice", "protocol": "Animals will be anesthetized with ketamine/xylazine and decapitated, and the spinal cord carefully dissected out of the body cavity and placed in a Sylgard-lined (Dow Corning, Midland MI) Petri dish in cooled (<4° C.) artificial cerebrospinal fluid (ACSF) containing (in mM); 125 NaCl, 2.5 KCl, 2 CaCl2, 1 MgCl2, 25 glucose, 1.25 NaH2PO4, and 26 NaHCO3 at a pH of 7.4, oxygenated with 95% O2-5% CO2. After opening and removing the dura mater, to facilitate the access of ACSF to the cord, dorsal and ventral roots will be identified and pinned out with small insect pins. Preparations will either be left intact (in animals less than 7 days old) or hemisected mid-sagittally (>1 week old animals). The hemisection in the older animals helps better oxygenate the tissue and extends the life expectancy of the isolated preparation. Under these conditions, we can hold the spinal cord functionally alive for more than 24 hours, and we have been able test SRAs in individual preparations for up to 48 hours. After a 30-60 min recovery at room temperature, glass suction electrodes will be placed on the distal parts of dorsal and ventral roots of lumbar segments L2-L5. […] For the analyses, reflex responses will be rectified and the calculated integrals of these responses measured and compared between epochs of identical duration before and after drug application. For short-term assessments of drug effects, we will average the last ten consecutive SRAs measured before drug application with the last ten consecutive SRAs after 30 min of application of the drugs per epoch. […]\nStatistical Analysis: For the experiments on the isolated spinal cords, we will measure SRAs under control and drug conditions, and data will be averaged and normalized to the mean of the pre-drug values. Statistical significance will be determined with One-Way ANOVA and subsequent post-hoc comparisons or t-tests, as appropriate, and with a set <0.05 (SigmaPlot, Systat, San Jose, CA)."}, "wild type (WT) animals": {"test_system": "wild type (WT) animals", "assay": "Thermal pain withdrawal reflex latencies (Hargreaves apparatus)", "type": "in vivo, mice", "details": "for thermal withdrawal latencies: WT, pramipexole 0.5 mg/kg, SCH 39166 0.1 mg/kg", "protocol": "Assessment of baseline pain withdrawal reflex latencies (“thermal pain”): RLS is first and foremost a sensory disorder that is accompanied by a motor component. The clinical sensations (“urge to move”) stem from deep muscle tissues and are considered “painful” by many, if not most patients, unless acted on immediately (moving of the limbs). Pain from deep muscles is carried by both unmyelinated C-fibers (both peptidergic and non-peptidergic) as well as a-∂ fiber. Pain due to thermal stimulus energy is carried specifically by subsets of these nociceptors that express the transient receptor potential-V1 protein (TRPV1). These TRPV1 expressing nociceptors also have extensive cutaneous distribution and are easily activated by a heat source applied to the surface of the skin. Thus the thermal pain stimulus tested in the Hargreaves apparatus (IITC, Inc., Life Science, Model 39D) provides an appropriate surrogate for monitoring changes in deep muscle nociceptor activity that may be present in RLS, and the latencies to withdraw the hindpaw from a noxious thermal stimulus applied to the plantar surface of the hindpaw provide a measure of pain sensitivity. Animals will be removed from their home cages and placed individually in the small Plexiglas containers of the Hargreave's system (4″ width×4″ length×5″ height). The behavior room has optional low light settings to minimize visual perturbations. Each day, animals will be acclimatized on the Hargreaves platform for 1-2 hrs. Subsequently, baseline withdrawal latencies will be determined for each animal, with five independent trials performed per hindpaw per session and a mean latency calculated for each day. The tests will be administered over 4 days.\nDrug injection protocol: After establishing baseline parameters, each animal will receive in weeks 1-4 once daily a single-drug i.p. injection of the respective compound: 0.9% NaCl (sham), the D3R agonist (pramipexole) at 0.1 or 0.5 mg/kg, or the D1R antagonist ecopipam ([…]) at 0.1 mg/kg, and tested for thermal pain withdrawal tolerance (details in flow chart, FIG. 5). […] Each cohort will be treated independently of each other, but all animals will receive their respective i.p. injections daily (7 days/week) between 9-11 am in the morning, to avoid possible conflicts with the circadian cycle. Thermal pain withdrawal reflexes will be tested as above on 4 subsequent days per week in the afternoon, starting on the second day of the drug injections. Subgroups a) of each cohort will be euthanized after 1 week, with subgroups b)-d) following suite in 1-week intervals (FIG. 5).\nStatistical Analysis: For the behavioral experiments, withdrawal latencies under drug conditions will be averaged and normalized to the mean of the pre-drug values, and statistical significance will be determined with RM ANOVA and subsequent post-hoc comparisons, as appropriate, and with a set <0.05 (SigmaPlot, Systat, San Jose, CA). For the data analysis of the Western blots, we will use One-way ANOVA testing to assess significance, and identify group differences with appropriate post-hoc comparisons (e.g. Holm-Sidak)."}, "[2]": {"details": "short-term bath application (less than 30 min)"}}, "note": "“Also recorded” adds a separate entry of the source."}
{"molecule": "CCCN1C[C@H](CSC)C[C@@H]2c3cccc4[nH]cc(c34)C[C@H]21", "note": "[pergolide]", "values": [{"measurement": "spinal reflex amplitudes (SRAs)", "setting": "[1]; [2]", "result": "significantly decreased SRAs; also recorded: significantly decreases SRAs over control"}]}
{"molecule": "CN1CCc2cc(Cl)c(O)cc2[C@H]2c3ccccc3CC[C@@H]21", "note": "[SCH 39166, ecopipam]", "values": [{"measurement": "thermal withdrawal latencies", "setting": "wild type (WT) animals; acute treatment", "result": "131+/−6.5 % of control"}, {"measurement": "acute modulation of thermal withdrawal responses (FIG. 2)", "setting": "wild type (WT) animals; acute treatment, result in words", "result": "increase withdrawal latencies"}, {"measurement": "withdrawal latencies after single injection of D1R antagonist", "setting": "wild type (WT) animals; animals treated for 4 weeks with pramipexole, 1 hour post-injection", "result": "150.+/−15%"}, {"measurement": "long-term effect on withdrawal latencies", "setting": "wild type (WT) animals; daily for 4 weeks, current data sets, result in words", "result": "does not have a significant effect"}, {"measurement": "withdrawal latencies after single injection of D1R antagonist", "setting": "wild type (WT) animals; non-treated group, week 1, one hour after the injection", "result": "151 +/−13%"}, {"measurement": "spinal reflex amplitudes (SRAs)", "setting": "[1]; additional bath-application after prolonged pramipexole exposure", "result": "decreased"}]}
{"molecule": "Oc1cc2c(cc1O)C(c1ccccc1)CNCC2", "note": "(stereo not drawn) [SKF 38393]", "values": [{"measurement": "spinal reflex amplitudes (SRAs)", "setting": "[1]; [2]", "result": "significantly increased them; also recorded: increases SRAs"}]}
{"molecule": "CCCN[C@H]1CCc2nc(N)sc2C1", "note": "[pramipexole]", "values": [{"measurement": "thermal withdrawal latencies", "setting": "wild type (WT) animals; acute treatment", "result": "152.9+/−2.8 % of control"}, {"measurement": "post-injection withdrawal latencies", "setting": "wild type (WT) animals; after 4 weeks of daily injections with pramipexole, 1 hr post-injection", "result": "75.2+/−32%"}, {"measurement": "post injection withdrawal latencies", "setting": "wild type (WT) animals; week 1, one hour after the first injection, 0.5 mg/kg pramipexole", "result": "194.65%±27"}, {"measurement": "withdrawal latencies to a thermal stimulus, weekly average", "setting": "wild type (WT) animals; week 1, pramipexole 0.5 mg/kg/day chronic injections", "result": "204.81%±6.3 % of control"}, {"measurement": "withdrawal latencies to a thermal stimulus, weekly average", "setting": "wild type (WT) animals; week 2, pramipexole 0.5 mg/kg/day chronic injections", "result": "158+/−12 % of control"}, {"measurement": "withdrawal latencies to a thermal stimulus, weekly average", "setting": "wild type (WT) animals; week 3, pramipexole 0.5 mg/kg/day chronic injections", "result": "135+/−6.5 % of control"}, {"measurement": "withdrawal latencies to a thermal stimulus, weekly average", "setting": "wild type (WT) animals; week 4, pramipexole 0.5 mg/kg/day chronic injections", "result": "85+/−11 % of control"}]}
